Experimental data from patent US12616678B2, “Methods to of aldehyde dehydrogenases for treatment of cancer” (THE PENN STATE RESEARCH FOUNDATION, priority 2020, dated 2026).
Where a name gives a salt, the structure may show the parent alone. Read-outs that look alike come from different tables or passages of the source. Each block holds one compound with its values, some of them ahead of it.

Columns and labels:
ALDH2 = target: T1, ALDH2 (Homo sapiens, UniProt P05091); test: ALDH isoform-specific enzyme assay, ALDH2 (NADH absorbance); assay type: biochemical; details: read-out: IC50s ALDH2
T1 construct: purchased R & D Systems, Inc, Minneapolis, MN, USA
T1 sequence (P05091 18-517): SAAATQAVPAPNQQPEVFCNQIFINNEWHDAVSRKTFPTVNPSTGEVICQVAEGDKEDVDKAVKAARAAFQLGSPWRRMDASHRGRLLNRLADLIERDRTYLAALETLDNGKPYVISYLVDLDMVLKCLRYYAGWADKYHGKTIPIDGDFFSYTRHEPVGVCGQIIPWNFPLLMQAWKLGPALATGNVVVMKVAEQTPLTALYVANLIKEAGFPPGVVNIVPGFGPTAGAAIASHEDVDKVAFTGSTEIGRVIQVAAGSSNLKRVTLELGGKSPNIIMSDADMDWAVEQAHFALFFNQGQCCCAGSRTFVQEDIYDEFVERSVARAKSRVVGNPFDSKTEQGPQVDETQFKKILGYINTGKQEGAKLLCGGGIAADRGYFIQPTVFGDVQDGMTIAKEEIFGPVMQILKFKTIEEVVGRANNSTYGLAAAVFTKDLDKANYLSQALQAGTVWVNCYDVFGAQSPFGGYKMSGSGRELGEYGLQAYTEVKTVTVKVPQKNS

ALDH1A1 = target: T2, ALDH1A1 (Homo sapiens, UniProt P00352); test: ALDH isoform-specific enzyme assay, ALDH1A1 (NADH absorbance); assay type: biochemical; details: read-out: IC50s ALDH1A1
T2 construct: purchased R & D Systems, Inc, Minneapolis, MN, USA
T2 sequence (P00352 1-501): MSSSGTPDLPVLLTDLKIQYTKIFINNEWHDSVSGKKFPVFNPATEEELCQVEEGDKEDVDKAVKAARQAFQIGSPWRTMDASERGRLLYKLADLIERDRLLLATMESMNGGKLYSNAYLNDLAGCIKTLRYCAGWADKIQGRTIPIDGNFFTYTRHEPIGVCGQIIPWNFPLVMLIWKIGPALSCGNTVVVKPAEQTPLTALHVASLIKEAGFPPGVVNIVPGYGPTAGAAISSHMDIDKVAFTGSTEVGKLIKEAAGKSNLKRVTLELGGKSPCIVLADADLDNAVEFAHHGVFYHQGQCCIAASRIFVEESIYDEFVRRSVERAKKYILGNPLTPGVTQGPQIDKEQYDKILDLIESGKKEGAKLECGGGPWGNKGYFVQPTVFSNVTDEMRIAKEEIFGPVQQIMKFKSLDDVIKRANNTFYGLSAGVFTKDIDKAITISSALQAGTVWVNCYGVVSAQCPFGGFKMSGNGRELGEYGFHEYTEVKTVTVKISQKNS

ALDH3A1 = target: T3, ALDH3A1 (Homo sapiens, UniProt P30838); test: ALDH isoform-specific enzyme assay, ALDH3A1 (NADH absorbance); assay type: biochemical
T3 construct: purchased R & D Systems, Inc, Minneapolis, MN, USA
T3 sequence (P30838 1-453): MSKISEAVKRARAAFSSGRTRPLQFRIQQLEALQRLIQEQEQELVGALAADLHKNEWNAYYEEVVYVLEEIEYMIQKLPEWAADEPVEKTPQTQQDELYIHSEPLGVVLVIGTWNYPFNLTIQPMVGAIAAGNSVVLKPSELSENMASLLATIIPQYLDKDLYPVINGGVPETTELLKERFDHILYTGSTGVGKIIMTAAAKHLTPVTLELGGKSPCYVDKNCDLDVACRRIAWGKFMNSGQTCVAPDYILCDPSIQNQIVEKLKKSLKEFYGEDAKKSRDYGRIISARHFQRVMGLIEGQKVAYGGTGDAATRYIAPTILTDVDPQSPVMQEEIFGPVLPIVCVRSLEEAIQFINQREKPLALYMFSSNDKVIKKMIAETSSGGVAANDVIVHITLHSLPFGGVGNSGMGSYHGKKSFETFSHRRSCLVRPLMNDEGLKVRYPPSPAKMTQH

[1] = test system: total cellular ALDH activity, UACC 903 cell lysates; test: Total cellular ALDH activity in cell lysates, UACC 903; assay type: cell-based, human; details: 1 uM, 15 minutes, UACC 903 and 1205 Lu cell lysates
Text: The ALDHs reduce ROS, lipid peroxidation and toxic aldehyde accumulation, the latter of which can lead to cell damage and apoptosis as shown in FIG. 6A. Thus, inhibition of total cellular ALDH activity can increase toxic aldehydes, oxidative damage and apoptosis.

[2] = test system: UACC 903 and 1205 Lu cells; test: Lipid peroxidation (TBARS), melanoma cells; assay type: cell-based, human; details: 5 μM, 24 hours, vs DMSO
Text: DMSO served as the vehicle control.

[3] = test system: UACC 903 and 1205 Lu cells; test: ROS assay (DCFDA), melanoma cells; assay type: cell-based, human; details: 5 μM, 24 hours, vs DMSO
[4] = test system: HCT116 colon cancer cell line; test: Lipid peroxidation and toxic aldehyde accumulation (TBARS), Study 2
[5] = test system: Colon cancer cells (HCT116 and HT29); test: MTS cell viability assay, colon cancer cells; assay type: cell-based; details: HCT116 and HT29, 72 hours; read-out: Average IC50s across both colon cancer cell lines
Text: (§1) Tumour Biol 2017; 39(3):1010428317694565; Rao P C, et al., Cytotoxicity of withasteroids: withametelin induces cell cycle arrest at G2/M phase and mitochondria-mediated apoptosis in non-small cell lung cancer A549 cells. Tumour Biol 2016; 37(9):12579-87; Dinavahi S S, et al., Combined inhibition of PDE4 and PI3Kdelta modulates the inflammatory component involved in the progression of chronic obstructive pulmonary disease. Drug Res (Stuttg) 2014; 64(4):214-9). Briefly, 3,000 cells per well were plated in a 96-well plate and incubated overnight at 37° C. in a 5% CO2 atmosphere. […] 20 μL of MTS reagent was then added into each well and formation of […] was measured by absorbance after 1 hour at 492 nm. IC50 values for each experimental group were measured in 3 independent experiments using GraphPad Prism version 7.04 (GraphPad Software, La Jolla, CA).

[6] = test system: multiple myeloma cell lines (NCIH929, U266, RPMI8226, MM.1R); test: MTS cell viability assay, multiple myeloma cells; assay type: cell-based; details: 72 hours, read-out: Average IC50s across all multiple myeloma cell lines tested
Text: as §1

Swiss-Webster mice = test: Toxicity study, 14 days; assay type: in vivo, mouse; details: 5 mg/kg/day i.p. for 14 days, vs DMSO
Experimental: To determine the toxicity of 3(h-l), compounds were injected i.p. into Swiss-Webster mice once daily for 14 days (Id.). Animals were monitored for changes in body weight, behavior and physical distress compared to DMSO control.

[7] = test system: HCT116 colon cancer cells; test: Apoptosis by Annexin-V/7-AAD, HCT116; assay type: cell-based; set-up: dose or concentration left out as unconfirmed; details: vs DMSO control or 3a
[8] = test system: colon cancer cell line HCT116; test: Cell cycle by propidium iodide staining, HCT116; assay type: cell-based; details: reversed by addition of NAC
[9] = test system: colon cancer cell line, HCT116; test: Cell survival MTS assay with addition of NAC; assay type: cell-based
[10] = test system: colon cell lines (HCT116, HT29); test: ROS assay (DCFDA) with or without NAC, Study 2; assay type: cell-based
[11] = test system: melanoma cells (UACC 903 and 1205 Lu) and normal human fibroblasts (FF2441); test: MTS cell viability assay, all the cell lines evaluated; assay type: cell-based; details: read-out: IC50s in all the cell lines evaluated
Text: as §1

UACC 903 cells = test: MTS cell viability assay, UACC 903; assay type: cell-based, human; details: 100 μM, 72 hours

IC50 (ALDH2): 144 µM | IC50 (ALDH1A1): 139 µM
SMILES: Cc1nc2ccccc2n1S(=O)(=O)c1ccc(F)cc1 [CB7]

SMILES: N=C(N)[Se]Cc1ccc(CN2C(=O)C(=O)c3cc(Br)ccc32)cc1 [Compound 4b, 2-[4-(5-Bromo-2,3-dioxo-2,3-dihydroindol-1-ylmethyl)benzyl]isoselenourea hydrobromide]
inhibition at 0.5 µM (ALDH3A1; read-out: % inhibition of ALDH3A1): ≥ 60%

SMILES: CCOC(=O)CSc1nc2c(sc3ccccc32)c(=O)n1CCCN1CCCC1 [CM037]
effect on total cellular ALDH activity [1]: significantly reduced | lipid peroxidation and toxic aldehyde accumulation [2]: significantly increased lipid peroxidation and toxic aldehyde accumulation | ROS levels [3]: significantly increased ROS levels

IC50 [5]: 5.3 µM | IC50 [6]: 1.9 µM
SMILES: Br.N=C(N)SCc1ccc(CN2C(=O)C(=O)c3cc(C(F)(F)F)ccc32)cc1 [Compound 3h, 2-[4-(2,3-Dioxo-5-trifluoromethyl-2,3-dihydroindol-1-ylmethyl)benzyl]isothiourea hydrobromide]
lipid peroxidation and toxic aldehyde accumulation ([4]; 5 μM, 24 hours, vs DMSO): significantly increased | lipid peroxidation effect on addition of NAC ([4]; with NAC): abrogated | weight loss (Swiss-Webster mice): no significant weight loss | percentage of cells both Annexin-V and 7-AAD positive [7]: significantly higher | cell cycle effect [8]: G2/M arrest | increase of cell killing IC50 on addition of NAC [9]: 6 fold | ROS levels ([10]; 5 μM, 24 hours, vs DMSO): significantly increased ROS levels | ROS-inducing activity on addition of N-Acetyl Cysteine (NAC) ([10]; with NAC): abrogated

IC50 [5]: 2.9 µM | IC50 [6]: 1.6 µM
SMILES: N=C(N)SCc1ccc(CN2C(=O)C(=O)c3cc(Cl)cc(Cl)c32)cc1 [Compound 3k, 2-[4-(5,7-Dichloro-2,3-dioxo-2,3-dihydroindol-1-ylmethyl)benzyl]isothiourea hydrobromide]

SMILES: O=C1C(=O)N(Cc2ccccc2)c2ccccc21 [Cpd 3]
IC50 [11]: > 100 µM

SMILES: CCN(CC)c1ccc(C=O)cc1 [DEAB]
effect on total cellular ALDH activity [1]: significantly reduced | lipid peroxidation and toxic aldehyde accumulation [2]: significantly increased lipid peroxidation and toxic aldehyde accumulation | IC50 (ALDH3A1; as rounded in text, read-out: IC50 ALDH3A1): 15.1 µM | IC50 (ALDH3A1; read-out: IC50s ALDH3A1): 15.1 µM | reduction of UACC 903 cell survival (UACC 903 cells): 30% | ROS levels [3]: significantly increased ROS levels

SMILES: O=C1Nc2ccccc2C1=O [Isatin]
effect on total cellular ALDH activity [1]: ineffective
